Results from patent publication US20220249376A1, “NANOVESICLES AND ITS USE FOR NUCLEIC ACID DELIVERY” (FUNDACIÓ HOSPITAL UNIVERSITARI VALL D'HEBRON - INSTITUT DE …, priority 2019, published 2022).

System: miR-323a-5p
Test: miR-323a-5p expression levels by qPCR after transfection
Format: cell-based
Settings: SK-N-BE(2), miRNA 50 nM
Protocol: For in vitro experiments, SK-N-BE(2) neuroblastoma cells were reverse transfected with the addition of the QS-sRNA complexes to complete cell culture medium (IMDM, 10% heat-inactivated foetal bovine serum (FBS) South America Premium (Biowest, Nuaillé, France)) without antibiotics. After overnight (o/n) incubation media was changed for IMDM supplemented with 10% FBS and antibiotics.
Total RNA including small RNAs was extracted using the miRNeasy Mini Kit (Qiagen, Las Matas, Spain). mRNAs were reverse transcribed (0.5 μg total RNA) using Taqman RT kit (#4366596; Applied Biosystems, Thermo Fisher Scientific), and mature miRNA expression analysis was quantified using Taqman microRNA assays (#4440047; Applied Biosystems, Thermo Fisher Scientific) following manufacturer's recommendations. cDNA was quantified by standard RT-qPCR methodology using 2× Power SYBR Green Master Mix (Applied Biosystems, Thermo Fisher Scientific) using the ABI700SDS equipment. […] The relative fold-change Relative quantification of gene expression was performed with a comparative 2^(−ΔΔCT) method (Livak K J, Schmittgen T D. Analysis of relative gene expression data using real-time quantitative PCR and the 2(−Delta Delta C(T)) method. Methods 2001; 25: 402-408).
The RNU44 is as a housekeeping gene, commonly used to normalize the smallRNA content in the analyzed samples. […]

## miRNA naked: miRIDIAN hsa-miR-323a-5p mimic AGGUGGUCCGUGGCGCGUUCGC (SEQ ID NO: 1), not complexed (listed as RNA, chemistry not given here)
  miR-323a-5p expression levels: could not increase
